Values after ≈ are worked out from the molar mass of the structure shown. Read-outs that look alike come from different tables or passages of the source. Peptide text beside a SMILES is read from it.
Legend:
Assay type in all cases: cell-based
[1] = test system: Acinetobacter baumannii (ATCC 17978); experiment: microbe, parasite or virus in culture; settings: read-out: Minimal bactericidal concentration (MBC) A. b.
Excerpt: (§1) The pathogenic bacterial strains obtained from the ATCC (United States) and NCTC (National Collection of Type Cultures – England) were the Gram-positive: Enterococcus faecalis (ATCC 29212), Staphylococcus aureus (HNCMO112011), Listeria monocytogenes (ATCC 19111) and the Gram-negative: Pseudomonas aeruginosa (ATCC 27853), Escherichia coli (ATCC 8739), Salmonella enterica (ATCC 13076), Klebsiella pneumoniae (NCTC 13440), Acinetobacter baumannii (ATCC 17978).
(§2) Overnight bacterial cultures grown in LB were diluted and grown to OD600 = 0.2–0.6 at 37°C with shaking. After harvesting and washing bacteria in PPB, the suspensions were adjusted to OD600 = 0.1 corresponding to ∼10^7 bacteria/mL. Antimicrobial activity of the peptides and the antibiotics was determined in PPB in 96 well microplates using 10 μL bacterial suspension and 90 μL of the 2-fold serial dilutions of peptides or antibiotics. Peptides were tested from 25 μM to 0.125 μM whereas the antibiotics; carbenicillin (Cb) from Duchefa Biochemie (Prod.No. C0109.0025) and levofloxacin (Lvx) from Sigma-Aldrich (Prod.No. 28266-10MG-F) from […] to 0.1 μM. The microplates were incubated for 3 h at 37°C with 250 rpm shaking and then 5 μl from each sample was placed on LB agar and the growth of bacteria was monitored after overnight incubation at 37°C. The lowest concentration of the antimicrobial agents, which completely eliminated viable bacteria was the minimal bactericidal concentration (MBC).

[2] = test system: Enterococcus faecalis (ATCC 29212); experiment: microbe, parasite or virus in culture; settings: read-out: Minimal bactericidal concentration (MBC) E. f.
Excerpt: as §1, §2

[3] = test system: Escherichia coli (ATCC 8739); experiment: microbe, parasite or virus in culture; settings: read-out: Minimal bactericidal concentration (MBC) E. c.
Excerpt: as §1, §2

[4] = test system: Klebsiella pneumoniae (NCTC 13440); experiment: microbe, parasite or virus in culture; settings: 3 h treatment in PPB (20 mM potassium-phosphate buffer, pH 7.4), 37°C, then plating on LB agar; for MBC: read-out: Minimal bactericidal concentration (MBC) K. p.
Excerpt: as §1, §2

[5] = test system: Listeria monocytogenes (ATCC 19111); experiment: microbe, parasite or virus in culture; settings: for MBC: read-out: Minimal bactericidal concentration (MBC) L. m.
Excerpt: as §1, §2

[6] = test system: Pseudomonas aeruginosa (ATCC 27853); experiment: microbe, parasite or virus in culture; settings: read-out: Minimal bactericidal concentration (MBC) P. a.
Excerpt: as §1, §2

[7] = test system: Salmonella enterica (ATCC 13076); experiment: microbe, parasite or virus in culture; settings: read-out: Minimal bactericidal concentration (MBC) S. e.
Excerpt: as §1, §2

[8] = test system: Staphylococcus aureus (HNCMO112011); experiment: microbe, parasite or virus in culture; settings: read-out: Minimal bactericidal concentration (MBC) S. a.
Excerpt: as §1, §2

[9] = test system: ESKAPE bacteria, L. monocytogenes and S. enterica; experiment: Antimicrobial activity in PPB, summarised over the tested bacteria; settings: for MBC, range over the tested bacteria as summarised in the text: 3 h in PPB, carbenicillin range excludes L. monocytogenes, peptide G range excludes E. faecalis
Excerpt: as §1, §2

Acinetobacter baumannii = test system: Acinetobacter baumannii
Excerpt: as §1
(§3) Ca^2+ and Mg^2+ can inhibit the antimicrobial activity of cationic peptides, therefore the MBC and MIC values were also determined in MHB, which unlike PPB contains divalent cations and allows growth of bacteria. Bacteria were grown and prepared similarly except that bacteria were resuspended in MHB. 10 μl of bacteria OD600 = 0.1, supplemented with 45 μl MHB and 45 μl of 2-fold dilution series of peptides, were cultivated for 3 and 20 h at 37°C with shaking. Optical density of each sample was measured (Hidex Sense Microplate Reader with Plate Reader Software version 5064) and 5 μl was placed on LB agar plates after 3 and 20 h treatment. The minimal inhibitory concentration (MIC) corresponded to the lowest concentration, which inhibited growth.

Escherichia coli = test system: Escherichia coli
Excerpt: as §1, §3

Staphylococcus aureus = test system: Staphylococcus aureus
Excerpt: as §1, §3

[10] = Acinetobacter baumannii, ATCC17978, 3 h treatment in PPB (20 mM potassium-phosphate buffer, pH 7.4), 37°C, then plating on LB agar
[11] = Enterococcus faecalis, ATCC29212, 3 h treatment in PPB (20 mM potassium-phosphate buffer, pH 7.4), 37°C, then plating on LB agar
[12] = Escherichia coli, ATCC8739, 3 h treatment in PPB (20 mM potassium-phosphate buffer, pH 7.4), 37°C, then plating on LB agar
[13] = Klebsiella pneumoniae, NCTC13440
[14] = Listeria monocytogenes, ATCC19111, 3 h treatment in PPB (20 mM potassium-phosphate buffer, pH 7.4), 37°C, then plating on LB agar
[15] = Pseudomonas aeruginosa, ATCC27853, 3 h treatment in PPB (20 mM potassium-phosphate buffer, pH 7.4), 37°C, then plating on LB agar
[16] = Salmonella enterica, ATCC13076, 3 h treatment in PPB (20 mM potassium-phosphate buffer, pH 7.4), 37°C, then plating on LB agar
[17] = Staphylococcus aureus, 3 h treatment in PPB (20 mM potassium-phosphate buffer, pH 7.4), 37°C, then plating on LB agar
[18] = 3 h treatment in PPB (20 mM potassium-phosphate buffer, pH 7.4), 37°C, then plating on LB agar
[19] = MHB, 3 h treatment, 37°C (panel assigned)
[20] = MHB, 20 h cultivation, 37°C, optical density (panel assigned)
[21] = MHB, 20 h treatment, 37°C (panel assigned)

C[C@H]1COc2c(N3CCN(C)CC3)c(F)cc3c(=O)c(C(=O)O)cn1c23 [Lvx, levofloxacin, reference compound]
MBC [1, 10]: 20 µM (≈ 7.23 µg/mL)
MBC [2, 11]: 160 µM (≈ 57.8 µg/mL)
MBC [3, 12]: 5 µM (≈ 1.81 µg/mL)
MBC [4, 13]: 320 µM (≈ 116 µg/mL)
MBC [5, 14]: 320 µM (≈ 116 µg/mL)
MBC [6, 15]: 1.3 µM (≈ 0.47 µg/mL)
MBC [7, 16]: 1.3 µM (≈ 0.47 µg/mL)
MBC [8, 17]: 2.5 µM (≈ 0.903 µg/mL)
MBC, range over the tested bacteria as summarised in the text [9]: 1.25 to 320 µM

CC1(C)S[C@@H]2[C@H](NC(=O)C(C(=O)O)c3ccccc3)C(=O)N2[C@H]1C(=O)O (stereo partly drawn) [Cb, carbenicillin, reference compound]
MBC [1, 10]: 5120 µM (≈ 1940 µg/mL)
MBC [2, 11]: 5120 µM (≈ 1940 µg/mL)
MBC [3, 12]: 1280 µM (≈ 484 µg/mL)
MBC [4, 13]: > 10200 µM
MBC [5, 14]: 80 µM (≈ 30.3 µg/mL)
MBC [6, 15]: 10200 µM (≈ 3870 µg/mL)
MBC [7, 16]: 640 µM (≈ 242 µg/mL)
MBC [8, 17]: 640 µM (≈ 242 µg/mL)
MBC, range over the tested bacteria as summarised in the text [9]: 640 to 10240 µM

RNGCIVDPRCPY [N-terminal part, 12 amino acid long N-terminal half of NCR247]
Antimicrobial activity on the tested bacteria ([9]; PPB, peptides tested up to 25 μM): inactive

CC[C@H](C)[C@H](NC(=O)[C@H](CS)NC(=O)CNC(=O)[C@H](CC(N)=O)NC(=O)[C@@H](N)CCCNC(=N)N)C(=O)N[C@H](C(=O)N[C@@H](CC(=O)O)C(=O)N1CCC[C@H]1C(=O)N[C@@H](CCCNC(=N)N)C(=O)N[C@@H](CS)C(=O)N1CCC[C@H]1C(=O)N[C@@H](Cc1ccc(O)cc1)C(=O)N[C@@H](CCC(N)=O)C(=O)N[C@@H](CCC(N)=O)C(=O)N[C@@H](CS)C(=O)N[C@@H](CCCNC(=N)N)C(=O)N[C@@H](CCCNC(=N)N)C(=O)N1CCC[C@H]1C(=O)N[C@@H](CC(C)C)C(=O)N[C@@H](Cc1ccc(O)cc1)C(=O)N[C@@H](CS)C(=O)N[C@@H](CCCNC(=N)N)C(=O)N[C@@H](CCCNC(=N)N)C(=O)N[C@@H](CCCNC(=N)N)C(N)=O)C(C)C [A, NCR247] (H-RNGCIVDPRCPYQQCRRPLYCRRR-NH2; N-terminus assumed)
MBC ([1]; ATCC 17978, 3 h, pH 7.4): 12.5 µM (≈ 37.6 µg/mL)
MBC ([2]; ATCC 29212, 3 h, pH 7.4): >25 µM
MBC ([3]; ATCC 8739, 3 h, pH 7.4): 6.3 µM (≈ 19 µg/mL)
Minimal bactericidal concentration (MBC) K. p. [4]: resistant at 25 μM
Minimal bactericidal concentration (MBC) L. m. [5, 18]: resistant at 25 μM
MBC ([5]; ATCC 19111, 3 h, pH 7.4): >25 µM
MBC ([6]; ATCC 27853, 3 h, pH 7.4): 3.1 µM (≈ 9.33 µg/mL)
MBC ([7]; ATCC 13076, 3 h, pH 7.4): 25 µM (≈ 75.2 µg/mL)
MBC ([8]; HNCMO112011, 3 h, pH 7.4): 6.3 µM (≈ 19 µg/mL)
MBC in Mueller Hinton Broth, panel (A), A. b. (Acinetobacter baumannii; 3 h): > 25 µM
MBC in Mueller Hinton Broth, panel (B), A. b. (Acinetobacter baumannii; 20 h): >25 µM
MIC in Mueller Hinton Broth, panel (C), A. b. (Acinetobacter baumannii; 20 h): >25 µM
MBC in Mueller Hinton Broth, panel (A), E. c. (Escherichia coli; 3 h): > 25 µM
MBC in Mueller Hinton Broth, panel (B), E. c. (Escherichia coli; 20 h): >25 µM
MIC in Mueller Hinton Broth, panel (C), E. c. (Escherichia coli; 20 h): 25 µM (≈ 75.2 µg/mL)
MBC in Mueller Hinton Broth, panel (A), S. a. (Staphylococcus aureus; 3 h): > 25 µM
MBC in Mueller Hinton Broth, panel (B), S. a. (Staphylococcus aureus; 20 h): >25 µM
MIC in Mueller Hinton Broth, panel (C), S. a. (Staphylococcus aureus; 20 h): >25 µM

CC[C@H](C)[C@H](NC(=O)[C@H](CCCCN)NC(=O)[C@H](CCCCN)NC(=O)[C@H](C)NC(=O)[C@H](CC(C)C)NC(=O)[C@H](C)NC(=O)[C@H](C)NC(=O)[C@H](CC(C)C)NC(=O)[C@H](C)NC(=O)[C@H](CCCCN)NC(=O)[C@H](CC(C)C)NC(=O)[C@H](CC(N)=O)NC(=O)[C@@H](NC(=O)[C@H](CCCCN)NC(=O)CNC(=O)[C@H](CC(C)C)NC(=O)[C@H](CC(C)C)NC(=O)[C@H](Cc1ccc(O)cc1)NC(=O)CNC(=O)[C@H](C)NC(=O)[C@H](CO)NC(=O)[C@H](CC(N)=O)NC(=O)[C@H](CC(C)C)NC(=O)[C@@H](NC(=O)[C@H](Cc1c[nH]c2ccccc12)NC(=O)CN)[C@@H](C)O)[C@@H](C)CC)C(=O)N[C@@H](CC(C)C)C(N)=O [J, Transportan, reference compound]
MBC [1, 18]: 1.6 µM (≈ 4.54 µg/mL)
MBC [2, 18]: 3.1 µM (≈ 8.81 µg/mL)
MBC [3, 18]: 3.1 µM (≈ 8.81 µg/mL)
MBC [4]: 3.1 µM (≈ 8.81 µg/mL)
MBC [5, 18]: 3.1 µM (≈ 8.81 µg/mL)
MBC [6, 18]: 3.1 µM (≈ 8.81 µg/mL)
MBC [7, 18]: 1.6 µM (≈ 4.54 µg/mL)
MBC [8, 18]: 3.1 µM (≈ 8.81 µg/mL)
MBC in Mueller Hinton Broth, panel (A), A. b. (Acinetobacter baumannii; [19]): 3.1 µM (≈ 8.81 µg/mL)
MIC in Mueller Hinton Broth, panel (C), A. b. (Acinetobacter baumannii; [20]): 3.1 µM (≈ 8.81 µg/mL)
MBC in Mueller Hinton Broth, panel (B), A. b. (Acinetobacter baumannii; [21]): 3.1 µM (≈ 8.81 µg/mL)
MBC in Mueller Hinton Broth, panel (A), E. c. (Escherichia coli; [19]): 6.3 µM (≈ 17.9 µg/mL)
MIC in Mueller Hinton Broth, panel (C), E. c. (Escherichia coli; [20]): 3.1 µM (≈ 8.81 µg/mL)
MBC in Mueller Hinton Broth, panel (B), E. c. (Escherichia coli; [21]): 6.3 µM (≈ 17.9 µg/mL)
MBC in Mueller Hinton Broth, panel (A), S. a. (Staphylococcus aureus; [19]): 6.3 µM (≈ 17.9 µg/mL)
MIC in Mueller Hinton Broth, panel (C), S. a. (Staphylococcus aureus; [20]): 3.1 µM (≈ 8.81 µg/mL)
MBC in Mueller Hinton Broth, panel (B), S. a. (Staphylococcus aureus; [21]): 3.1 µM (≈ 8.81 µg/mL)

Reference: paper PMC7047876, “Potent Chimeric Antimicrobial Derivatives of the Medicago truncatula NCR247 Symbiotic Peptide” (Frontiers in Microbiology, 2020)
